# Measurements taken from PMC9316000, “Preclinical Drug Pharmacokinetic, Tissue Distribution and Excretion Profiles of the Novel Limonin Derivate HY-071085 as an Anti-Inflammatory and Analgesic Candidate in Rats and Beagle Dogs” (Pharmaceuticals, 2022).
# Entries after “also recorded” stand apart in the source; their conditions may differ. Where two headings read alike, the source gives them in different places.
# Key:
# [1] = design: method as in earlier work; conditions: Temp 25℃, pH 7.4; cited from earlier work
# [2] = Tissue distribution in rats; type: in vivo; conditions: S-IG 13 mg/kg
# Method: The male and female rats were euthanized by femoral artery bleeding under anesthesia after the single-dose intragastric administration of HY-071085 (13 mg/kg) for 10 min, 45 min and 4 h, and the tissues were separated for the analysis of the concentration of HY-071085 in the homogenate.
# Tissue distribution in rats: Rats were randomly allocated into three groups (10 rats/group) for the tissue distribution studies. These rats were sacrificed at 10 min, 45 min and 4 h after orally administering HY-071085. Fourteen organs—the heart, liver, spleen, lung, kidney, stomach, gut, muscle, fat, skin, brain, ovary (female), womb (female) and testis (male)—were removed, washed in normal saline, and dried with filter papers immediately. The organs were accurately weighed and individually homogenized with an appropriate amount of deionized water. The tissue homogenate was stored at –80 °C until analysis.
# [3] = design: method as in earlier work; conditions: Temp 25℃; cited from earlier work
# [4] = Pharmacokinetics after single-dose intragastric administration in rats; type: in vivo, Sprague Dawley rats; conditions: for bioavailability / MRT / AUC / AUC(0-inf) / CL/F / Tmax / Cmax / half-life / Vd/F: rat, plasma; for bioavailability: 3.25 mg/kg intragastric vs intravenous, from AUCs, read-out: absolute oral bioavailability; for AUC: read-out: AUC0-tn; for Vd/F: read-out: Vss/F
# Method: Blood samples were collected from the fundus venous plexus at various times within 8 h after administration in order to analyze the concentration of HY-071085 in plasma.
# The profiles of the mean plasma concentration of HY-071085 versus time after a single dose in rats are presented in Figure 2 and Figure 3, and the PK parameters are listed in Table 1. […] At the three doses, the AUCtn ratios of the female rats and male rats were 3.5, 3.9 and 2.4, respectively. The AUCtn ratio among male rats was 1:5.16:41.06, and among female rats was 1:5.71:28.20.
# In vivo PK profiling in the rats: Sprague Dawley rats (approximately 177–221 g in weight) were purchased from Shanghai Xipur-Bikai Experimental Animal Co., Ltd. (Shanghai, China). Before the experiment, several rats were randomly divided into several groups, half males and half females in each group, fasting but free to drink water for 12 h. The dosage of the rats was dependent on the drug pharmacology: the HY-071085 active pharmaceutical ingredients were administered with a dosage volume of 0.25 mL/100 g body weight. The whole-blood samples were centrifuged at 8000 rpm for 5 min, and the plasma samples were separated and stored at –80 °C until the analysis.
# According to the obtained plasma concentration time data, the pharmacokinetic parameters were calculated using Phoenix WinNonlin 8.1 software. The pharmacokinetic parameters—i.e., the area under the curve (AUC), mean residence time (MRT), clearance rate (Cl/F) and steady-state apparent distribution volume (Vss/F)—were calculated by the method of moments, which was estimated according to the following formulae: AUCtn=∑Ci+Ci−1ti−ti−1/2 AUC∞=AUCtn+Cm/λ AUMCtn=∑tiCi+ti−1Ci−1ti−ti−1/2 AUMC∞=AUMCtn+Ctntn/λ+1/λ^2 MRT=AUMC∞/AUC∞ Cl/F=Dose/AUC Vss/F=Cl∗MRT where Ctn is the plasma concentration of tn at the last point after administration, and the elimination rate constant was obtained by ln(concentration) time linear regression.
# Due to the drug having significant individual differences in rats, it could not be uniformly fitted with a PK atrioventricular model; as such, the pharmacokinetic parameters analyzed in this study were calculated using a non-atrioventricular model. The pharmacokinetic parameters are defined as follows: Cmax is the maximum blood concentration after administration and absorption, Tmax is the time required to reach Cmax, t1/2 is the time required to eliminate half of the plasma drug concentration after the drug distribution in the body reaches equilibrium, Cl/F is the apparent clearance rate, AUC0-tn is the area under the blood concentration time curve within the dosing interval, AUC0-∞ is the area under the plasma concentration time curve from 0 to infinity, MRT is the average time that all drug molecules stay in the body, and Vss/F is the steady-state apparent distribution volume, which is the product of the clearance rate and average residence time.
# [5] = design: method as in earlier work; conditions: Temp 25℃; cited from earlier work; remark: listed apart in the source
# [6] = design: method as in earlier work; conditions: cited from earlier work
# [7] = Sprague Dawley, po, female rats, S-IG 3.25 mg/kg
# [8] = Sprague Dawley, po, female rats, S-IG 6.5 mg/kg
# [9] = Sprague Dawley, po, female rats, S-IG 13 mg/kg
# [10] = Sprague Dawley, po, male rats, S-IG 3.25 mg/kg
# [11] = Sprague Dawley, po, male rats, S-IG 6.5 mg/kg
# [12] = Sprague Dawley, po, male rats, S-IG 13 mg/kg
# [13] = Sprague-Dawley, po, female rats, S-IG 3.25 mg/kg
# [14] = Sprague-Dawley, po, female rats, S-IG 6.5 mg/kg
# [15] = Sprague-Dawley, po, female rats, S-IG 13 mg/kg
# [16] = Sprague-Dawley, po, male rats, S-IG 3.25 mg/kg
# [17] = Sprague-Dawley, po, male rats, S-IG 6.5 mg/kg
# [18] = Sprague-Dawley, po, male rats, S-IG 13 mg/kg
structure (smiles),measurement,setting,value
"CC1(C)OC2CC(=O)OCC23C1C/C(=N\OCCN1CCOCC1)C1(C)C3CC[C@@]2(C)[C@H](c3ccoc3)OC(=O)C3OC312 (stereo partly drawn) [HY-071085, (12S,12aS,E)-12-(furan-3-yl)-6,6,8a,12a-tetramethyl-8-((2-morpholinoethoxy)imino)dodecahydro-1H,3H-oxireno [2,3-d]pyrano [4’,3’:3,3a]isobenzofuro [5,4-f]isochromene-3,10(9aH)-dione]",LogD,[1],2.45
same,concentration in the brain,[2],extremely low
same,tissue distribution,"[2]; 10 min, 45 min and 4 h","mainly distributed in the gastric, intestine, liver, spleen, lung and kidney tissues; also recorded: mainly distributed in most of the tissues except the brain"
same,logP,[3],2.8023
same,AUCtn ratio of female rats and male rats,[4]; S-IG 3.25 mg/kg,3.5
same,AUCtn ratio of female rats and male rats,[4]; S-IG 6.5 mg/kg,3.9
same,AUCtn ratio of female rats and male rats,[4]; S-IG 13 mg/kg,2.4
same,bioavailability,"[4]; Sprague Dawley, oral, male rats",2.83%
same,bioavailability,"[4]; Sprague Dawley, po, female rats",10.8%
same,MRT,[4]; [7],4.06 ± 0.82 h
same,AUC,[4]; [7],73.7 ± 25.3 ng·h/mL
same,AUC(0-inf),[4]; [8],429 ± 204 ng·h/mL
same,CL/F,[4]; [8],302 mL/min/kg
same,MRT,[4]; [8],2.57 ± 0.64 h
same,AUC,[4]; [8],421 ± 205 ng·h/mL
same,MRT,[4]; [9],2.29 ± 0.92 h
same,Tmax,[4]; [9],0.95 ± 0.51 h
same,AUC,[4]; [9],2080 ± 407 ng·h/mL
same,bioavailability,"[4]; Sprague Dawley, po, male rats",2.8%
same,MRT,[4]; [10],3.48 ± 1.98 h
same,AUC,[4]; [10],20.8 ± 3.01 ng·h/mL
same,AUC(0-inf),[4]; [11],125 ± 72.3 ng·h/mL
same,CL/F,[4]; [11],1180 mL/min/kg
same,MRT,[4]; [11],2.89 ± 1.87 h
same,AUC,[4]; [11],108 ± 54.2 ng·h/mL
same,MRT,[4]; [12],1.94 ± 0.39 h
same,AUC,[4]; [12],855 ± 290 ng·h/mL
same,Cmax,[4]; [13],20.4 ± 9.08 ng/mL
same,Tmax,[4]; [13],0.7 ± 0.73 h
same,half-life,[4]; [13],2.16 ± 1.13 h
same,Cmax,[4]; [14],145 ± 64.5 ng/mL
same,Tmax,[4]; [14],0.9 ± 0.68 h
same,half-life,[4]; [14],1.3 ± 0.36 h
same,Vd/F,[4]; [14],36.3 ± 23.2 L/kg
same,Cmax,[4]; [15],761 ± 322 ng/mL
same,half-life,[4]; [15],0.9 ± 0.42 h
same,Cmax,[4]; [16],11.3 ± 4.54 ng/mL
same,Tmax,[4]; [16],0.22 ± 0.04 h
same,half-life,[4]; [16],2.35 ± 1.27 h
same,Cmax,[4]; [17],107 ± 139 ng/mL
same,Tmax,[4]; [17],0.45 ± 0.59 h
same,half-life,[4]; [17],1.98 ± 1.04 h
same,Vd/F,[4]; [17],172 ± 70.3 L/kg
same,Cmax,[4]; [18],381 ± 152 ng/mL
same,Tmax,[4]; [18],0.85 ± 0.45 h
same,half-life,[4]; [18],1.21 ± 0.31 h
same,drug exposure of female rats relative to male rats,[4]; single-dose intragastric administration,about three times
same,Intrinsic solubility,[5],4500 µg/mL
same,pKa,[6],6.11
